Test results reported in patent US20030008814A1, “Pseudomycin phosphate prodrugs” (priority 2002, published 2003).

Assay: Tail vein toxicity
Assay type: in vivo
Details: male ICR mice, IV lateral tail vein, 20 mg/kg at 0, 24, 48 and 72 hours, monitored 7 days; in comparison to pseudomycin B
Experimental: Mice were treated intravenously (IV) through the lateral tail vein with 0.1 ml of testing compound (20 mg/kg) at 0, 24, 48 and 72 hours. Two mice were included in each group. Compounds were formulated in 5.0% dextrose and sterile water for injection. The mice were monitored for 7 days following the first treatment and observed closely for signs of irritation including erythema, swelling, discoloration, necrosis, tail loss and any other signs of adverse effects indicating toxicity.
The mice used in the study were outbred, male ICR mice having an average weight between 18-20 g (available from Harlan Sprangue Dawley, Indianapolis, Ind.

## C/C=C1\NC(=O)[C@H]([C@H](C)O)NC(=O)[C@H](CCNC(=O)OCc2ccc(OP(=O)(OCc3ccccc3)OCc3ccccc3)cc2)NC(=O)[C@H](CCCCNC(=O)OCc2ccc(OP(=O)(OCc3ccccc3)OCc3ccccc3)cc2)NC(=O)[C@H](CC(=O)O)NC(=O)[C@@H](CCNC(=O)OCc2ccc(OP(=O)(OCc3ccccc3)OCc3ccccc3)cc2)NC(=O)[C@@H](NC(=O)CC(O)CCCCCCCCCCC)COC(=O)[C@H]([C@H](O)CCl)NC(=O)[C@H](C(O)C(=O)O)NC1=O (stereo partly shown) [Compound 1A-1]
  tail vein toxicity: improvement in tail vein toxicity
